Source: article PMC12658631, “Synthesis and Antitrypanosomal Activity of Novel 2‑Nitroimidazole-3,5-Disubstituted Isoxazole Derivatives with Diaryl Ether and Thioether Substituents” (ACS Omega, 2025)
Like-named read-outs stand apart in the source and are kept apart here.

What was measured:
[1] = tested on: T. cruzi intracellular amastigotes (Tulahuen lacZ strain); experiment: Antitrypanosomal assay, intracellular amastigotes in LLC-MK2 cells, CPRG readout; type: cell-based, Trypanosoma cruzi; details: for IC50: Trypanosoma cruzi, read-out: Amastigote IC50 (μM ± SD); for activity category (active / moderately active / inactive): category by amastigote IC50
Procedure: (§1) The cytotoxicity evaluation and the determination of the selectivity index (SI) were done on LLC-MK2 cells.
Initially, 5 × 10^3 LLC-MK2 cells/well were infected with trypomastigotes in 96-well plates at a parasite/cell ratio of 10:1. After 48 h, plates were washed twice with PBS before adding compounds in a serial dilution range of 100 μM to 0.78 μM in fresh RPMI 1640 medium (Sigma-Aldrich). As a control, infected untreated cells (100% infection control) were employed. Following 72 h of incubation, amastigote viability tests were performed using 50 μL of PBS containing 2% Triton X-100 and 200 μM CPRG. Tulahuen lacZ strain expressing galactosidase enzyme were used, which catalyzes the yellow reagent of CPRG into a red chromophore that can be easily detected by absorbance at 570 nm after 4 h at 37 °C (microplate reader – Synergy H1). The percentage of amastigotes inhibition (IC50) was calculated as 100-(absorbance of treated infected cells)/(absorbance mean of untreated infected cells) × 100.

[2] = Cytotoxicity assay (MTT); type: cell-based; details: rhesus monkey, LLC-MK2 cells, read-out: LLC-MK2 CC50 (μM ± SD)
Procedure: as §1
To assess chemical cytotoxicity, MTT (3-(4,5-Dimethyl-2-thiazolyl)-2,5-diphenyl-2H-tetrazolium bromide, Sigma-Aldrich)-based kit reagents were employed. LLC-MK2 cells were incubated in 96-well plates for 48 h at a concentration of 5 × 10^3 cells/well. Cells were then washed twice with PBS (Sigma-Aldrich) before being incubated with compounds in a serial dilution from 200 μM to 1.56 μM in fresh RPMI 1640 medium (Sigma-Aldrich). After 72 h, 50 μL of MTT solution (2.0 mg/mL) was added to each well, and the plates were incubated for another 4 h at 37 °C. The resultant formazan crystals were dissolved in DMSO (50 μ L/well) and measured at 570 nm 30 min later in a Synergy H1 microplate reader. Cytotoxic concentration of 50% (CC50) was calculated based on a dose–response curve excluding DMSO cytotoxicity (>1%) of the untreated control.

[3] = tested on: T. cruzi amastigote forms; details: triazole with diphenyl ether substituent; ref Assunção et al.; read-out: IC50 against T. cruzi amastigote forms; cited from earlier work
[4] = LLC-MK2, T. cruzi intracellular amastigotes, Tulahuen lacZ strain, 72 h incubation
[5] = ratio of amastigote IC50 values

| SMILES | SI, selectivity index: CC50 of LLC-MK2 cells/IC50 of intracellular amastigotes [1] | IC50 [1, 4] [µM] | CC50 at 72 h [2] [µM] | other results |
| --- | --- | --- | --- | --- |
| O=C(Cn1ccnc1[N+](=O)[O-])NCc1ccccc1 [BZN, benznidazole, reference compound] | >17.6 | 5.67 ± 0.83 | > 100 |  |
| O=[N+]([O-])c1nccn1Cc1cn(-c2ccc(Oc3ccccc3)cc2)nn1 [Compound 4b] |  |  |  | IC50 [3]: 6.6 µM |
| O=[N+]([O-])c1nccn1Cc1cc(-c2ccc(Oc3ccccc3)cc2)no1 [Compound 6a, 5-((2-Nitro-1H-imidazol-1-yl)methyl)-3-(4-phenoxyphenyl)isoxazole] | >82.2 | 1.22 ± 0.73 | > 100 | fold more active than the reference drug benznidazole (BZN) [1, 5]: 4.6 fold; fold more active against amastigote forms than its triazole analog ([1]; ratio of amastigote IC50 values, comparator is a literature value): 5.4 fold |
| O=[N+]([O-])c1nccn1Cc1cc(-c2ccc(Oc3ccc(F)cc3)cc2)no1 [Compound 6b, 3-(4-(4-Fluorophenoxy)phenyl)-5-((2-nitro-1H-imidazol-1-yl)methyl)isoxazole] | >199.4 | 0.5 ± 0.51 | > 100 |  |
| O=[N+]([O-])c1nccn1Cc1cc(-c2ccc(Oc3ccc(Cl)cc3)cc2)no1 [Compound 6c, 3-(4-(4-Chlorophenoxy)phenyl)-5-((2-nitro-1H-imidazol-1-yl)methyl)isoxazole] | >99.0 | 1.01 ± 1.13 | > 100 | fold less active than 6b [1, 5]: 2 fold |
| O=[N+]([O-])c1nccn1Cc1cc(-c2ccc(Oc3ccc(Cl)c(Cl)c3)cc2)no1 [Compound 6d, 3-(4-(3,4-Dichlorophenoxy)phenyl)-5-((2-nitro-1H-imidazol-1-yl)methyl)isoxazole] | >35.9 | 2.79 ± 0.93 | > 100 | activity category (active / moderately active / inactive) [1]: active |
| O=[N+]([O-])c1nccn1Cc1cc(-c2ccc(Oc3ccc(OC(F)(F)F)cc3)cc2)no1 [Compound 6e, 5-((2-Nitro-1H-imidazol-1-yl)methyl)-3-(4-(4-(trifluoromethoxy)phenoxy)phenyl)isoxazole] | >80.1 | 1.25 ± 0.71 | > 100 |  |
| Cc1ccc(Oc2ccc(-c3cc(Cn4ccnc4[N+](=O)[O-])on3)cc2)cc1 [Compound 6f, 5-((2-Nitro-1H-imidazol-1-yl)methyl)-3-(4-(P-tolyloxy)phenyl)isoxazole] | >56.5 | 1.77 ± 0.24 | > 100 |  |
| COc1ccc(Oc2ccc(-c3cc(Cn4ccnc4[N+](=O)[O-])on3)cc2)cc1 [Compound 6g, 3-(4-(4-Methoxyphenoxy)phenyl)-5-((2-nitro-1H-imidazol-1-yl)methyl)isoxazole] | >155.3 | 0.64 ± 0.05 | > 100 |  |
| O=[N+]([O-])c1nccn1Cc1cc(-c2ccc(Oc3ccccc3)c(F)c2)no1 [Compound 6h, 3-(3-Fluoro-4-phenoxyphenyl)-5-((2-nitro-1H-imidazol-1-yl)methyl)isoxazole] | >31.4 | 3.18 ± 2.18 | > 100 | activity category (active / moderately active / inactive) [1]: active |
| O=[N+]([O-])c1nccn1Cc1cc(-c2ccc(Oc3ccc(F)cc3)c(F)c2)no1 [Compound 6i, 3-(3-Fluoro-4-(4-fluorophenoxy)phenyl)-5-((2-nitro-1H-imidazol-1-yl)methyl)isoxazole] | >70.4 | 1.42 ± 0.42 | > 100 | fold less active than 6b [1, 5]: 2.8 fold |
| O=[N+]([O-])c1nccn1Cc1cc(-c2ccc(Oc3ccc(Cl)cc3)c(F)c2)no1 [Compound 6j, 3-(4-(4-Chlorophenoxy)-3-fluorophenyl)-5-((2-nitro-1H-imidazol-1-yl)methyl)isoxazole] | >64.1 | 1.56 ± 0.69 | > 100 |  |
| O=[N+]([O-])c1nccn1Cc1cc(-c2ccc(Oc3ccc(Cl)c(Cl)c3)c(F)c2)no1 [Compound 6k, 3-(4-(3,4-Dichlorophenoxy)-3-fluorophenyl)-5-((2-nitro-1H-imidazol-1-yl)methyl)isoxazole] | >11.8 | 8.5 ± 2.06 | > 100 | activity category (active / moderately active / inactive) [1]: moderate activity |
| O=[N+]([O-])c1nccn1Cc1cc(-c2ccc(Oc3ccc(OC(F)(F)F)cc3)c(F)c2)no1 [Compound 6l, 3-(3-Fluoro-4-(4-(trifluoromethoxy)phenoxy)phenyl)-5-((2-nitro-1H-imidazol-1Yl)methyl)isoxazole] | >14.7 |  |  | IC50 ([1]; TULAHUEN, LLC-MK2, 72 h): 3.77 ± 0.07 µM |
| Cc1ccc(Oc2ccc(-c3cc(Cn4ccnc4[N+](=O)[O-])on3)cc2F)cc1 [Compound 6m, 3-(3-Fluoro-4-(P-tolyloxy)phenyl)-5-((2-nitro-1H-imidazol-1-yl)methyl)isoxazole] | >13.5 | 7.41 ± 3.22 | > 100 | fold less active than 6f [1, 5]: 4 fold |
| COc1ccc(Oc2ccc(-c3cc(Cn4ccnc4[N+](=O)[O-])on3)cc2F)cc1 [Compound 6n, 3-(3-Fluoro-4-(4-methoxyphenoxy)phenyl)-5-((2-nitro-1H-imidazol-1-yl)methyl)isoxazole] | >28.2 | 3.54 ± 0.21 | > 100 | fold less activity than 6g [1, 5]: 5.5 fold |
| O=[N+]([O-])c1nccn1Cc1cc(-c2ccc(Sc3ccccc3)cc2)no1 [Compound 6o, 5-((2-Nitro-1H-imidazol-1-yl)methyl)-3-(4-(phenylthio)phenyl)isoxazole] | >4.9 | 20.6 ± 0.98 | > 100 | activity category (active / moderately active / inactive) [1]: moderate activity |
| O=[N+]([O-])c1nccn1Cc1cc(-c2ccc(Sc3ccc(Cl)cc3)cc2)no1 [Compound 6p, 3-(4-((4-Chlorophenyl)thio)phenyl)-5-((2-nitro-1H-imidazol-1-yl)methyl)isoxazole] | >9.0 | 11.1 ± 0.16 | > 100 |  |
| Cc1ccc(Sc2ccc(-c3cc(Cn4ccnc4[N+](=O)[O-])on3)cc2)cc1 [Compound 6q, 5-((2-Nitro-1H-imidazol-1-yl)methyl)-3-(4-(P-tolylthio)phenyl)isoxazole] | >5.8 | 17.1 ± 0.24 | > 100 | activity category (active / moderately active / inactive) [1]: moderate activity |
